Assay results reported in US20230310376A1, “PROPHYLACTIC AND/OR THERAPEUTIC AGENT FOR IDIOPATHIC PULMONARY FIBROSIS” (ONO PHARMACEUTICAL CO., LTD., priority 2020, published 2023).
Entries after “also recorded” stand apart in the source; their conditions may differ.

How the values were obtained:
[1] = system: bleomycin-induced pulmonary fibrosis models produced using male ICR mice; experiment: Bleomycin-induced pulmonary fibrosis model, male ICR mice; type: in vivo, mouse; conditions: bleomycin i.v. 5 days, 0.3, 1, 3 mg/kg oral two times/day to day 28, vs medium-administered group
Method: Male ICR mice (Charles River Laboratories Japan, Inc., the week age at the start of experiment: 12-week old) were used. Bleomycin hydrochloride (Nippon Kayaku Co., Ltd.) was dissolved in physiological saline (Otsuka Pharmaceutical Factory, Inc.) to prepare a 3-mg/mL solution. The bleomycin solution thus prepared was administered into a tail vein of each of the mice at a dosage volume of 5 mL/kg at a frequency of 1 time/day for 5 days. For a normal group, physiological saline was administered into a tail vein at a dosage volume of 5 mL/kg at a frequency of 1 time/day for 5 days.
(§1) On the day of first administration of bleomycin, the body weights were measured, and the mice were divided into groups equally in such a manner that a significant difference was not observed in the average values of the body weights among the groups. After the grouping, the administration of a test substance or the medium started, and the administration was performed repeatedly through oral route at a frequency of two times/day from the day of the first administration of bleomycin to day 28. The volume of a solution to be administered was calculated on the basis of the body weight of each of the mice.
On the next day of the day of the final administration, each of the animals was subjected to the opening of the abdominal cavity under the anesthesia with 2% isoflurane, and then the abdomen aorta in each of the mice was dissected to bleed to death. After the bleeding to death, the right lung was excised, and the lung wet weight was measured. Subsequently, the tissues of the right lung were dried with a dry-heat sterilizer, and the dry weight of the right lung was measured. […] The weight of the product after the neutralization was measured to calculate the amount (g) of the sample after the neutralization. […]
A chloramine T reagent (1 mL) was added to an HYP standard solution (2 mL), the resultant mixture was left to stand for 20 minutes at room temperature, then a perchloric acid reagent (1 mL) was added to the solution, and then the resultant mixture was left to stand for 5 minutes at room temperature. A p-dimethylaminobenzaldehyde reagent (1 mL) was added to the solution, then the resultant mixture was warmed to 60° C. for 20 minutes, and then the absorbance of a supernatant produced by the filtration of the mixture through a filter was measured at 557 nm with a spectrophotometer to produce a standard curve.
With respect to each of the HYP content measurement samples (2 mL), the measurement of the absorbance was performed in the same manner as mentioned above, and then the HYP content (μg/mL) was calculated on the basis of the standard curve. […] The HYP amount in the right lung (μg/Lung) was calculated in accordance with the following equation. […]

[2] = system: bleomycin-induced pulmonary fibrosis models produced using LPA3 receptor-deficient C57BL/6N mice; experiment: Bleomycin-induced pulmonary fibrosis model, LPA3 receptor-deficient C57BL/6N mice; type: in vivo, mouse; conditions: transpulmonary bleomycin, 3 mg/kg oral two times/day to day 21, vs medium-administered group
Method: (§2) Wild-type and LPA3 receptor-deficient male C57BL/6N mice (Oriental BioService, Inc., the week age at the start of the experiment: 13-week old) were used. Bleomycin hydrochloride (Nippon Kayaku Co., Ltd.) was dissolved in physiological saline (Otsuka Pharmaceutical Factory, Inc.) to prepare a 0.41-mg/mL solution. The bleomycin solution thus prepared was administered to each of the mice at a dosage volume of 75 μL through a transpulmonary route. For a normal group, physiological saline was administered at a dosage volume of 75 μL through a transpulmonary route.
as §1, with “through an” for “through”, “21.” for “28.”
On the next day of the day of the final administration, each of the animals was subjected to the opening of the abdominal cavity under the anesthesia with a three types of mixed anesthetic agent (the intraperitoneal administration of 0.3 mg/10 mL/kg of medetomidine, 4 mg/10 mL/kg of midazolam, and 5 mg/10 mL/kg of butorphanol), and then the abdomen aorta in each of the animals was dissected to bleed to death. After the bleeding to death, the lung was excised, and the lung wet weight was measured. Subsequently, the lung was frozen. The frozen lung was homogenized, and then 11.2-N hydrochloric acid (200 μL) was added to a homogenate solution to hydrolyze the homogenate solution at about 120° C. for 34 hours. The content of hydroxyproline in the solution after the hydrolysis was measured using a hydroxyproline quantification kit (BioVision, Inc.).

[3] = system: bleomycin-induced pulmonary fibrosis model, wild-type male C57BL/6N mice; experiment: Bleomycin-induced pulmonary fibrosis model, wild-type C57BL/6N mice; type: in vivo, mouse; conditions: transpulmonary bleomycin, 3 mg/kg oral two times/day to day 21, vs medium-administered group
Method: as §2
as §1, with “through an” for “through”, “21.” for “28.”, “mice. […]” for “mice.”

[4] = target: LPA2 receptor (Homo sapiens, UniProt Q9HBW0); experiment: LPA2 agonistic activity measurement in receptor-expressing cell strain; type: cell-based; conditions: cell strain stably expressing LPA2 receptor
[5] = target: human LPA1 receptor (Homo sapiens, UniProt Q92633); experiment: LPA1 agonistic activity measurement in receptor-expressing cell strain; type: cell-based; conditions: cell strain stably expressing human LPA1 receptor
Sequence of human LPA1 receptor (Q92633 whole entry): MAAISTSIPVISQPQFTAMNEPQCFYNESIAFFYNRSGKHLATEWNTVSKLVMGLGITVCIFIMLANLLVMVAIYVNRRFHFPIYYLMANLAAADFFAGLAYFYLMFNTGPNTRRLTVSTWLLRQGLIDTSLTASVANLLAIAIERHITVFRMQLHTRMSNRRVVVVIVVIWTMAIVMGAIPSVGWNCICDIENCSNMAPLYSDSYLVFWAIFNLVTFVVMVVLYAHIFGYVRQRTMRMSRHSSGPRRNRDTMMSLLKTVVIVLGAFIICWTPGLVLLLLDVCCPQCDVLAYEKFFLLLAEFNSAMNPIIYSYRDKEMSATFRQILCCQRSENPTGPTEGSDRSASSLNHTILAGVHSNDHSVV

Sequence of LPA2 receptor (Q9HBW0 whole entry): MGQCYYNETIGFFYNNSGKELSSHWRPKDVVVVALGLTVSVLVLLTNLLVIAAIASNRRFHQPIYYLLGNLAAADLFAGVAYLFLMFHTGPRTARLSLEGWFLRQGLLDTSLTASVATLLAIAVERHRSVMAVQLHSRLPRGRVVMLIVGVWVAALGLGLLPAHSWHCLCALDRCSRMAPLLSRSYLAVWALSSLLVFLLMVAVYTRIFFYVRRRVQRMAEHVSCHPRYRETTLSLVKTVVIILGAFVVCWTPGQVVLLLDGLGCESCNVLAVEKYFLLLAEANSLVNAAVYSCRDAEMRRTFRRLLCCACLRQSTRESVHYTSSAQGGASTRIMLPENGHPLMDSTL

## Cc1ccc(Cn2c(C(=O)O)c(CNC3CCC3)c3ccccc32)cc1 [Compound I, 3-[(Cyclobutylamino)methyl]-1-(4-methylbenzyl)-1H-indol-2-carboxylic acid]
[1]; FIG. 1
  weight of the right lung: significantly prevented the increase; also recorded: prevents the increase in the weight of the lung
[1]; FIG. 1, listed as Example 1
  weight of the right lung: lower compared with those in the medium-administered group
[1]; FIG. 2
  HYP (hydroxyproline) amount in the right lung: significantly prevented the increase; also recorded: prevents the increase in the amount of hydroxyproline
[1]; FIG. 2, listed as Example 1
  HYP (hydroxyproline) amount in the right lung: lower compared with those in the medium-administered group
[2]; FIG. 3, 3 mg/kg
  lung weight: does not prevent the increase in the weight of the lung
[2]; FIG. 3, listed as Example 1, 3 mg/kg
  lung weight: did not show significant difference compared with those in the medium-administered group
[2]; FIG. 4, 3 mg/kg
  HYP amount in the lung: does not prevent the increase in the amount of hydroxyproline
[2]; FIG. 4, listed as Example 1, 3 mg/kg
  HYP amount in the lung: did not show significant difference compared with those in the medium-administered group
[3]; FIG. 3
  lung weight: smaller compared with those in the medium-administered group
[3]; FIG. 4
  HYP amount in the lung: smaller compared with those in the medium-administered group
[4]
  EC50: > 10 µM
[5]
  EC50: > 10 µM
